Measured values from the NIST ThermoML archive (doi:10.1016/j.tca.2014.04.026).

Assay: molar heat capacity at constant pressure; wn = mass fraction of the nth substance listed
Settings: 101 kPa, Liquid, Small sample (50 mg) DSC

CCn1cc[n+](C)c1.N#C[C-](C#N)C#N [1-ethyl-3-methyl-1H-imidazolium tricyanomethanide] + CCn1cc[n+](C)c1.N#CN=C=[N-]
molar heat capacity at constant pressure [J/K/mol]
Settings	w2 = 0	w2 = 0.25	w2 = 0.5	w2 = 0.75
296.2 K	357	354	344	335
300.2 K	360	355	346	338
304.2 K	362	356	347	339
308.2 K	364	357	348	340
312.2 K	366	358	350	342
316.2 K	367	359	352	343
320.2 K	369	360	352	344
324.2 K	370	361	354	345
328.2 K	372	363	356	347
332.2 K	374	365	358	349
336.2 K	377	367	360	352
340.2 K	379	370	362	354
344.2 K	382	372	365	356
348.2 K	384	374	367	359
352.2 K	387	377	370	362
356.2 K	390	381	373	365
360.2 K	393	383	376	368
364.2 K	396	385	380	371
368.2 K	399	388	383	374
372.2 K	403	391	387	378
